Source: EP4548971A1, “1,4-BENZOTHIAZEPINES AND RELATED COMPOUNDS WITH CYCLOPROPANOL GROUPS AS MULTI-TARGETED DRUGS” (Georg-August-Universität Göttingen Stiftung Öffentlichen …, priority 2023, dated 2025)

What was measured:
[1] = system: RyR2-WT iPSC cardiomyocytes; assay: Electrically induced Ca2+ transients in intact iPSC-derived cardiomyocytes, RyR2-WT; format: cell-based, human; conditions: estimated from non-linear fit; for IC50: read-out: IC50 values for the rise times of Ca2+ transients
Description: (§1) • Figure 1: Synthesis scheme showing the synthesis of multifunctional compounds with cyclopropanol residues based on 1,4 -benzothiazepines. The respective reaction conditions […] are as follows: (a) Jones reagent, aceton; (b) H2SO4, EtOH; (c) EtMgBr, Ti(OiPr)4, EtzO; (d) t-BuMe2SiOSO2CF3, 2,6-lutidine, DCM; (e) Hz, Pd/C, THF; (f) Dess-Martin reagent, DCM; (g) K2CO3, 1,4-dioxane; (h) N2H4*H2O, EtOH; (i) Na(CH3COO)3BH, 1,2-dichloroethane; (j) NaH, DMF; (k) aq. HF (55%), MeCN or 1 M n-Bu4NF in THF or KF, Et3N*HCl, MeOH. m,n = 2-8. • Figure 2: Synthesis scheme showing the synthesis of multifunctional compounds with cyclopropanol residues based on the "open" analogs 1,4 -benzothiazepines (i.e. 3-[(4-methoxyphenyl)oxy]-and 3-[(4-methoxyphenylthio)]propane-1-amine derivatives). […] Values represent the mean ± S.D., *** P < 0.0005, **** P < 0.0001 vs. DMSO by unpaired t test; n = 6 - 28. • Figure 6: Time-lapse fluorescence measurements using TECAN Spark 20M plate reader with HEK293 cells expressing WT RyR2 and R-CEPIA1er indicator. (a) R-CEPIA1er assay, control (0.1 v/v% DMSO) or 100 µM of compound 14a was injected at 90 seconds (arrow). Fluorescence ratio F/F0, where F0 - average fluorescence signal for the first 90 seconds, F- average fluorescence signal for the last 100 s, was taken for the calculations. (b-d) Dose-response effects of compounds 13 and 14 on [Ca^2+]ER in HEK293-RyR2-R-CEPIA1er cells. […] Data sets were analyzed by unpaired Student's t-test. n.s. non-significant with P=0.59 for Dan, **, P<0.01 with P=0.003 for S36, and *, P<0.05 with P=0.019 for GM1869; (D, E, F) Relative changes in the decay time tau of Ca2+ transients from spontaneous Ca2+ waves (in control/drug) by Dan (D, 10µM), S36 (E, 10 µM), and GM1869 (F, 10 µM) in cardiomyocytes from WT and RyR2R2474S/+ mice. […] Rise times represent the tau values calculated by a mono-exponential fit of the Ca2+ transients from start to the peak of the signal. Ca2+ transients were recorded in control conditions and every 2 min (S36) or 4 min (GM1869) after drug application. **, P = 0.0065 for S36; ****, P = 0.000019 for GM1869, evaluated by paired Student's t-test. […] Decay times represent the tau values calculated by a mono-exponential fit of the Ca2+ transients from half maximum to baseline of the signal. Ca2+ transients were recorded in control conditions and every 2 min (S36) or 4 min (GM1869) after drug application. Data sets were analyzed by paired Student's t-test. n.s., P = 0.14; **, P = 0.0043. […] Data from each experiment were normalized to the first transient recorded. […]

[2] = system: RyR2-R2474S+/- iPSC cardiomyocytes; assay: Electrically induced Ca2+ transients in intact iPSC-derived cardiomyocytes, RyR2-R2474S+/-; format: cell-based, human; conditions: estimated from non-linear fit; for IC50: read-out: IC50 values for the rise times of Ca2+ transients
Description: as §1

[3] = system: saponin-permeabilized ventricular cardiomyocytes (sp-vCM) from WT mice; assay: Ca2+ wave decay in saponin-permeabilized ventricular cardiomyocytes, WT mice; format: cell-based; conditions: 10 µM, result in words
Description: (§2) • Figure 1: Synthesis scheme showing the synthesis of multifunctional compounds with cyclopropanol residues based on 1,4 -benzothiazepines. The respective reaction conditions (a) to (i) are as follows: (a) Jones reagent, aceton; (b) H2SO4, EtOH; (c) EtMgBr, Ti(OiPr)4, EtzO; (d) t-BuMe2SiOSO2CF3, 2,6-lutidine, DCM; (e) Hz, Pd/C, THF; (f) Dess-Martin reagent, DCM; (g) K2CO3, 1,4-dioxane; (h) N2H4*H2O, EtOH; (i) Na(CH3COO)3BH, 1,2-dichloroethane; (j) NaH, DMF; (k) aq. HF (55%), MeCN or 1 M n-Bu4NF in THF or KF, Et3N*HCl, MeOH. m,n = 2-8. • Figure 2: Synthesis scheme showing the synthesis of multifunctional compounds with cyclopropanol residues based on the "open" analogs 1,4 -benzothiazepines (i.e. 3-[(4-methoxyphenyl)oxy]-and 3-[(4-methoxyphenylthio)]propane-1-amine derivatives). […] Values represent the mean ± S.D., *** P < 0.0005, **** P < 0.0001 vs. DMSO by unpaired t test; n = 6 - 28. • Figure 6: Time-lapse fluorescence measurements using TECAN Spark 20M plate reader with HEK293 cells expressing WT RyR2 and R-CEPIA1er indicator. […] Fluorescence ratio F/F0, where F0 - average fluorescence signal for the first 90 seconds, F- average fluorescence signal for the last 100 s, was taken for the calculations. […] Data sets were analyzed by unpaired Student's t-test. n.s. non-significant with P=0.59 for Dan, **, P<0.01 with P=0.003 for S36, and *, P<0.05 with P=0.019 for GM1869; (D, E, F) Relative changes in the decay time tau of Ca2+ transients from spontaneous Ca2+ waves (in control/drug) by Dan (D, 10µM), S36 (E, 10 µM), and GM1869 (F, 10 µM) in cardiomyocytes from WT and RyR2R2474S/+ mice. […] Rise times represent the tau values calculated by a mono-exponential fit of the Ca2+ transients from start to the peak of the signal. Ca2+ transients were recorded in control conditions and every 2 min (S36) or 4 min (GM1869) after drug application. **, P = 0.0065 for S36; ****, P = 0.000019 for GM1869, evaluated by paired Student's t-test. […] Decay times represent the tau values calculated by a mono-exponential fit of the Ca2+ transients from half maximum to baseline of the signal. […]

[4] = system: saponin-permeabilized ventricular cardiomyocytes (sp-vCM) from RyR2R2474S/+ mice; assay: Ca2+ wave decay in saponin-permeabilized ventricular cardiomyocytes, RyR2R2474S/+ mice; format: cell-based; conditions: 10 µM, result in words
Description: as §2

[5] = Homo sapiens, iPSC, read-out: EC50 values for the decay times of Ca2+ transients

Row | SMILES | EC50 [1, 5] [nM] | IC50 ([1]; Homo sapiens, iPSC) [nM] | EC50 [2, 5] [nM] | IC50 ([2]; Homo sapiens, iPSC) [nM] | Relative changes in the decay time tau of Ca2+ transients from spontaneous Ca2+ waves (in control/drug) [3] | Relative changes in the decay time tau of Ca2+ transients from spontaneous Ca2+ waves (in control/drug) [4] | EC50 values for the decay times of Ca2+ transients [1] | EC50 values for the decay times of Ca2+ transients [2]
1 | COc1ccc2c(c1)CN(CCCCN(CCCCC1(O)CC1)CCCCC1(O)CC1)CCS2 [Compound 14a, 1,1'-(((4-(7-Methoxy-2,3-dihydrobenzo[1,4-f]thiazepin-4(5H)-yl)butyl)azanediyl)bis(butane-4,1-diyl))bis(cyclopropan-1-ol)] | 0.097 | 0.025 | 0.071 | 0.045 | significantly below 1 | significantly below 1 | – | –
2 | COc1ccc2c(c1)CN(C(=O)C(=O)O)CCS2 [Compound S36, reference compound] | – | 0.15 | – | 0.04 | not significantly different from 1 | not significantly different from 1 | no EC50 values were obtained | no EC50 values were obtained
